Experimental data published in patent US20260365692A1, “COMPOSITIONS COMPRISING PROTEINS DISSOLVED IN FLUORINATED SOLVENTS, AND METHODS OF MAKING AND USING THE SAME” (priority 2022, published 2026).

Legend:
HepG2 cells = experiment: HepG2 MTT viability assay (Example 2); assay type: cell-based, human; settings: Homo sapiens, HepG2, 37 °C overnight
Description: FIG. 28 depicts a viability assay for HepG2 cells treated with two first generation compounds and two second generation compounds.
Next, viability assays were performed by seeding HepG2 (liver cancer cell line) onto 96 well plates and allowing the cells to adhere overnight. DMEM cell culture media containing various concentrations of each FTag compound were then added, and the plates were incubated at 37 °C overnight. The supernatant was then removed and MTT viability dyes were added to each well and allowed to convert for 2 hours. Dye absorbance for each condition was then compared to positive (20% DMSO) and negative (blank media) controls to calculate % viability (FIG. 28).

BSA [1] = molecular target: T1, BSA (Bos taurus, UniProt P02769); experiment: 19F NMR of PFNA with BSA; assay type: binding, bovine
T1 sequence (P02769 25-607): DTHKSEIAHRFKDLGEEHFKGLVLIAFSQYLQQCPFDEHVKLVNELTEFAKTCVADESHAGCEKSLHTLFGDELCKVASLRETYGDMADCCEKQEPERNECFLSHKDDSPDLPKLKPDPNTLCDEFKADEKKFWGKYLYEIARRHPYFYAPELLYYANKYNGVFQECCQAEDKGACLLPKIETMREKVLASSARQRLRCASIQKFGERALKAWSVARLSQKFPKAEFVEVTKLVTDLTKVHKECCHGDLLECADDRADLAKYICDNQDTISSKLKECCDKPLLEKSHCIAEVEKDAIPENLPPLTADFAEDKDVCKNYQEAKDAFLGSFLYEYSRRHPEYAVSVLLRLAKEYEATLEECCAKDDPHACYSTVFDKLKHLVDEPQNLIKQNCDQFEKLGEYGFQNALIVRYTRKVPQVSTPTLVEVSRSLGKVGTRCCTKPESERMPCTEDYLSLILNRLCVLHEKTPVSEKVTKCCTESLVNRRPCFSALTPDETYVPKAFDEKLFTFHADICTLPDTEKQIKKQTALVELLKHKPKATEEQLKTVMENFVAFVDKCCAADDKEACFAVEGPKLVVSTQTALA
Excerpt: This further supported the conclusion that, like TFE, adsorption of PFNA to protein surfaces aligned the fluorinated tail parallel to the solvent accessible exterior, with further stabilization via F . . . H bonding with surface N—H groups (FIG. 12, FIGS. 12A-12E, and FIG. 13). This ultimately generated the fluorine rich coating that altered water accessibility and promoted secondary structure.

A549 cells [2] = experiment: Protein uptake in A549 cells, Cy5-labeled BSA; assay type: cell-based, human; settings: PFNA
Description: FIGS. 18A-18B depict the uptake of Cy5-labeled BSA in human lung A549 cells after 2 and 24 hours of incubation in the absence/presence of PFNA. Results are shown in relative fluorescence units (RFU).
(§1) Multiplexed in vitro assays were employed to probe the influence of PFNA interactions on protein uptake and transport in cells. A549 and PC9 human lung cells were prioritized for these assays given that pulmonary tissue is a primary site of perfluoroalkyl bioaccumulation in humans (Reference: 63). Before initiating experiments, cellular toxicity assays established a maximum tolerated dose of PFNA to avoid confounding protein transport experiments with substantive cell death. Protein uptake was then studied using green fluorescent protein (GFP) and bovine serum albumin (BSACy5) as model biologics that employ non-specific pinocytic mechanisms for cellular entry.

IgG = experiment: Isothermal titration calorimetry, IgG; assay type: binding, rabbit
Excerpt: To test this assertion, PFNA binding to three exemplary proteins, BSA, β-Gal and IgG, was studied via isothermal titration calorimetry (ITC) and surface plasmon resonance (SPR) techniques. […] SPR analysis yielded similar results, with sensorgrams (FIGS. 14J-14L) that diverged from a simple 1:1 ligand-protein model. […] Similar phenomenon may explain the negative signals of the SPR data and further support the ability of PFNA to modulate the conformational plasticity of adsorbed proteins.

BSA [3] = molecular target: T1, BSA; experiment: 1H and 19F NMR of dispersant:BSA complex; assay type: binding, bovine
Description: FIG. 43 depicts a superimposed ^1H NMR spectra of PD-7 (60 mM) and PD-7:BSA (1000:1 molar ratio) complex.
FIG. 44 depicts a superimposed ^1H NMR spectra of PD-2 (60 mM) and PD-2:BSA (1000:1 molar ratio) complex.
FIG. 45 depicts the change in ^1H (—COOH) and ^19F (—CF3) NMR chemical shift (Δδ) for PD-2 (grey) and PD-7 (black) following coordination with the BSA protein.
1H NMR and 19F NMR spectroscopy were employed to examine the biophysical interactions between BSA and PD-7 in the fluorous solvent. 60 mM PFNA solution in PFOc was aliquoted into lyophilized BSA stocks to achieve 1000:1 PFNA/BSA molar ratio then transferred to thin wall precision tube with Norell Coaxial inserts containing D2O as locking solvent. NMR spectra were collected on a Bruker NEO-400, equipped with a double resonance broadband observe iProbe (capable of automatic tuning and matching) for 1H and 19F nuclei observation. […] This is a 7-fold change in chemical shift relative to PD-7:BSA (FIG. 45).

A549 cells [4] = experiment: Protein uptake in A549 cells, GFP; assay type: cell-based, human; settings: PFNA, 24-hour exposure
Description: FIGS. 17A-17B depict the uptake of GFP in human lung A549 cells after 2 and 24 hours of incubation in the absence/presence of PFNA. Results are shown in relative fluorescence units (RFU).
as §1

[5] = Thermal stability of proteins in PFNA/PFOc (bioactivity after heating); assay type: physicochemical; settings: PFNA/PFOc mixture compared to aqueous solution, 30 min heating
Description: FIGS. 16A-16C depict that the thermal stability of β-gal, GFP, and Trypsin is enhanced when the proteins are dissolved in a PFNA/PFOc mixture, compared to aqueous solutions of the proteins.
PFNA enhanced thermal stability in PFOc Differential scanning calorimetry (DSC) measurements were performed on 5 test proteins dissolved in either PBS (Aq.) or Perfluorooctane (PFOc). PFNA dispersant was added only for the PFOc conditions. DSC was performed at 2 °C/min ramp from 40 °C-100 °C. Melting temperature (Tm) was determined based on positive inflection of heat capacity curve, indicating protein unfolding (FIG. 15). Change in melting temperature (ATm (°C)) represented the difference in Tm between aqueous (Aq.) and PFOc data. Tm for GFP in PFOc could not be achieved at the maximum temperature of 100 °C for the DSC experiments. Each protein was dissolved in PBS (Aq.) or PFNA/PFOc mixture. Dissolved proteins were heated to 75 °C (β-gal), 90 °C (GFP) or 80 °C (Trypsin); treatment temperatures were determined based on aqueous melting temperatures for each protein. Positive controls were maintained at room temperature (25 °C). […] Bioactivity was evaluated then via fluorescence measurements for GFP, or using colorimetric substrate conversion assays (ONPG for β-gal, BAEE for Trypsin). […]

[6] = Pharmacokinetics of β-Gal in C57BL/6J mice (Example 3); assay type: in vivo; settings: i.v. tail vein
Description: Two groups (n=5) of C57BL/6J mice received […] of 10 μM solutions of β-Gal that was either 1) prepared in sterile PBS or 2) dissolved in PFOc (1 mM PFNA) and extracted into sterile PBS. Due to the large solution volumes given (150 μL, ~15% of mouse blood volume), PFOc dispersed proteins were extracted into sterile saline before injection to avoid hyponatremia. Samples were administered by tail vein injection.
At a series of time points, mice were sacrificed, and blood samples collected via cardiac puncture. Bioactivity and bioavailability of β-Gal was determined by conversion of the fluorescent substrate, 4-Methylumbelliferyl-[…] (β-GAL). Whole blood collected in a serum tube was centrifuged at 2000 rcf for 4 minutes to extract serum containing β-Gal protein. 20 μL of the serum was then mixed with 180 μL μ-GAL (for a final substrate concentration of 1 μM). Samples were quickly pipette mixed and incubated in the dark at room temperature for 5 minutes. Fluorescent intensity was measured with λex=360 nm and λem=440 nm. The background fluorescent intensity from serum was determined from serum dilution in PBS without μ-GAL substrate.

[7] = presence of BSA, 1000:1 molar ratio, in PFOc

| Molecule | IC50 (HepG2 cells) [µM] | 19F NMR peak change upon interaction (BSA [1]) | BSA internalization (A549 cells [2]) | evolution of heat (ITC) (IgG) | change in chemical shift relative to PD-7:BSA (BSA [3]; 1H —COOH, PD-2 vs PD-7) [fold] | change in chemical shift of CF3 (Δδ, 19F NMR) (BSA [3]; [7]) [ppm] | downfield shift of —COOH hydrogen (1H NMR) (BSA [3]; [7]) [ppm] | uptake of GFP (A549 cells [4]) | thermal stability [5] | serum half-life t1/2 ([6]; native β-Gal administered in saline) [min] | serum half-life t1/2 ([6]; β-Gal delivered from PFOc dispersion (1 mM PFNA), extracted into saline) [min] |
| --- | --- | --- | --- | --- | --- | --- | --- | --- | --- | --- | --- |
| O=C(O)C(F)(F)C(F)(F)C(F)(F)C(F)(F)C(F)(F)C(F)(F)C(F)(F)C(F)(F)F [Compound 7, perfluoronanonic acid] | 540 | broadening of PFNA's peaks | less affected | no significant evolution of heat | 7 | 0.006 | 0.56 | nominal increase in uptake | – | – | – |
| β-Gal: β-Galactosidase (β-Gal), dissolved in PBS/saline or dispersed in PFOc | – | – | – | – | – | – | – | – | enhanced | 6.6 | 7.9 |
